SMILES strings stand for the structures.

This is an account of results in ChEMBL document CHEMBL1144196, “Carbonic anhydrase activators: kinetic and X-ray crystallographic study for the interaction of D- and L-tryptophan with the mammalian isoforms I-XIV” (Bioorg Med Chem, 2008).

In assay [1] the target is Carbonic anhydrase 2 (Homo sapiens) (UniProt P00918). As to the kind of experiment: Activation of human recombinant CA2 after […] by stopped-flow CO2 hydration assay.
In assay [2] the target is Carbonic anhydrase 5A, mitochondrial (Homo sapiens) (UniProt P35218). Kind of assay: Activation of human recombinant CA5A after 15 mins by stopped-flow CO2 hydration assay.
For assay [3], the target named is Carbonic anhydrase 5B, mitochondrial (Homo sapiens) (UniProt Q9Y2D0). Kind of assay: Activation of human recombinant CA5B after 15 mins by stopped-flow CO2 hydration assay.
For assay [4], the target named is Carbonic anhydrase 7 (Homo sapiens) (UniProt P43166). As to the kind of experiment: Activation of human recombinant CA7 after 15 mins by stopped-flow CO2 hydration assay.
Assay [5] addresses Carbonic anhydrase 9 (Homo sapiens) (UniProt Q16790). Kind of assay: Activation of human recombinant CA9 after 15 mins by stopped-flow CO2 hydration assay.
For assay [6], the target named is Carbonic anhydrase 12 (Homo sapiens) (UniProt O43570). Kind of assay: Activation of human recombinant CA12 after 15 mins by stopped-flow CO2 hydration assay.
In assay [7] the target is Carbonic anhydrase 13 (Mus musculus) (UniProt Q9D6N1). As to the kind of experiment: Activation of mouse recombinant CA13 after 15 mins by stopped-flow CO2 hydration assay.
Assay [8] concerns the target Carbonic anhydrase 14 (Homo sapiens) (UniProt Q9ULX7). As to the kind of experiment: Activation of human recombinant CA14 after 15 mins by stopped-flow CO2 hydration assay.

Carbonic anhydrase 12 (Homo sapiens), sequence (O43570 whole entry): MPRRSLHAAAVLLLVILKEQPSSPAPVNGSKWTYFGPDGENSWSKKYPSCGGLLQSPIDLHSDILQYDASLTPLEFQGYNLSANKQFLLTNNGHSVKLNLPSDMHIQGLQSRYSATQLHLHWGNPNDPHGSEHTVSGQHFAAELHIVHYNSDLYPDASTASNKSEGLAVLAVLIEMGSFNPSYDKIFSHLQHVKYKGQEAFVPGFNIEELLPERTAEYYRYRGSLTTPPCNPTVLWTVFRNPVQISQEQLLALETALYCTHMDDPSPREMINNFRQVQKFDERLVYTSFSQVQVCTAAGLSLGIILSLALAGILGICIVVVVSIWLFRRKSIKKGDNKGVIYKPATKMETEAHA
Carbonic anhydrase 7 (Homo sapiens), sequence (P43166 whole entry): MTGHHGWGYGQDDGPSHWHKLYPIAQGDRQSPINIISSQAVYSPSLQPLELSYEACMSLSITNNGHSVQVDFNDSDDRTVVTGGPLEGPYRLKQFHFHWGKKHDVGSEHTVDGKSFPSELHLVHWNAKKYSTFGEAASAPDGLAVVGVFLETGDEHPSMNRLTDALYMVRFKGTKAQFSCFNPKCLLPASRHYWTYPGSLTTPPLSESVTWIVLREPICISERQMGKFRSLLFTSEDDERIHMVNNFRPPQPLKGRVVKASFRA
Carbonic anhydrase 5A, mitochondrial (Homo sapiens), sequence (P35218 whole entry): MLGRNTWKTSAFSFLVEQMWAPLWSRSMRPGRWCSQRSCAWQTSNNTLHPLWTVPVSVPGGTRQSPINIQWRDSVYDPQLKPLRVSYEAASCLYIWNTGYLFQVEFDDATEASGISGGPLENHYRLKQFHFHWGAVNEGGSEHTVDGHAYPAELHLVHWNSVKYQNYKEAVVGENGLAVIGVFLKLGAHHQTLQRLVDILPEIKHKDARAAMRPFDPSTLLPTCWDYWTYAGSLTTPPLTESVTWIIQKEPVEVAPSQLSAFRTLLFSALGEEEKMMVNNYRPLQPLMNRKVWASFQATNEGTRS
Carbonic anhydrase 14 (Homo sapiens), sequence (Q9ULX7 whole entry): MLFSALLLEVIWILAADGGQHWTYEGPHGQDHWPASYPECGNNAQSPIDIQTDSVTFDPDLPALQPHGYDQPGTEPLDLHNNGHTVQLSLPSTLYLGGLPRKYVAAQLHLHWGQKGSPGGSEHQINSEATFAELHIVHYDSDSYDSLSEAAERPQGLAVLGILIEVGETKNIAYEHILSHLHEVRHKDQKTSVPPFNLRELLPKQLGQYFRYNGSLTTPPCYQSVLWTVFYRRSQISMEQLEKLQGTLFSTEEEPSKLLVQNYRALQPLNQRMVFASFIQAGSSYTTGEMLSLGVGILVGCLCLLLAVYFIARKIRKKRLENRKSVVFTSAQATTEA
Carbonic anhydrase 13 (Mus musculus), sequence (Q9D6N1 whole entry, looked up): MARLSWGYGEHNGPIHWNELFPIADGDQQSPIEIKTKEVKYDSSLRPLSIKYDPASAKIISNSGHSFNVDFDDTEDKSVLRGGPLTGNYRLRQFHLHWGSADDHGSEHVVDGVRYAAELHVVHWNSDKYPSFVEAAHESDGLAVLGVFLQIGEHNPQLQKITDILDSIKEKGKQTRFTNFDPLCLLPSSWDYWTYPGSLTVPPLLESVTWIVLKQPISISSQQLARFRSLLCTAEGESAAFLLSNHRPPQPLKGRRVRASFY
Carbonic anhydrase 5B, mitochondrial (Homo sapiens), sequence (Q9Y2D0 whole entry): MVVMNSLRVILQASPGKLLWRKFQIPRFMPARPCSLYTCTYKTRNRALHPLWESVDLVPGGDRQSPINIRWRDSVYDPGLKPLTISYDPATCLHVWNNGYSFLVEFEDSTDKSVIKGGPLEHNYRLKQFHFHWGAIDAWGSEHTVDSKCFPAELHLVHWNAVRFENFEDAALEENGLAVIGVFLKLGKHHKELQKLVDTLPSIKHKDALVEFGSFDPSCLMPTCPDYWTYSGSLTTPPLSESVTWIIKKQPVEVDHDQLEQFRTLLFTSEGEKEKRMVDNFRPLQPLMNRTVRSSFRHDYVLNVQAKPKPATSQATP

`N[C@H](Cc1c[nH]c2ccccc12)C(=O)O`: the Ka in assay [1] worked out at 0.37 µM; in assay [2] it was 1.24 µM; in assay [3], 1.35 µM; in assay [4], 39 µM; in assay [5], 43 µM; in assay [6] it was 28 µM. Also, the figures for the Ka in assay [7] and in assay [8] were 0.81 µM and 18 µM, respectively.
`N[C@@H](Cc1c[nH]c2ccccc12)C(=O)O`: the Ka came out at 1.13 µM in assay [1]; 1.13 µM in assay [2]; 0.89 µM in assay [3]; 57 µM in assay [4]; 37 µM in assay [5]; 26 µM in assay [6]. The Ka in assay [7] and in assay [8] was 16 µM in each case.
On to `CNC[C@@H](O)c1ccc(O)c(O)c1`, for which the Ka in assay [2] amounted to 63 µM; in assay [4] it was 60 µM; in assay [5], 0.87 µM; in assay [6] it was 0.41 µM; in assay [8], 36 µM.
